Legend:
Wister-strain male rats = assay: Acute toxicity test; assay type: in vivo; conditions: 100 ml/kg-body weight, intravenous, observed for one week
Description: The acute toxicity test on the preparations of the present invention was carried out using the preparations of the present invention shown in Table 4 which had been physiologically isotonized. The test animals used were Wister-strain male rats (weighing 100-120 g).

[1] = Distribution of perfluoro-compound in organs (gas chromatography); assay type: in vivo, Wister-strain male rats; conditions: 4 g/kg, tail vein, rats

Question: For FC(F)(F)C1(F)N2C(F)(F)C(F)(F)C(F)(F)C(F)(F)C2(F)C(F)(F)C(F)(F)C1(F)F (stereo not drawn) [Example 1, perfluoro-4-methyloctahydroquinolidine], which death cases (Wister-strain male rats) is on record?
Answer: The death cases was “no death case”.

Question: And the “adverse influence on the liver or spleen organ” value ([1]; 3 months)?
Answer: The value was “no evidence of adverse influence on the liver or spleen organ”.

Question: And the “uptake by and disappearance from the reticulo-endothelial organs” value ([1]; 3 months)?
Answer: Its value is “taken up in greater amounts by the reticulo-endothelial organs shortly after the administration, but soon disappeared rapidly”.

Question: And the “Residual Rate of perfluorobicyclo compound” value (“Residual Rate” below) ([1]; Liver, 1 week after administration)?
Answer: Its value is 19.92%.

Question: What about the “Residual Rate” value ([1]; Liver, 2 weeks after administration) of the same molecule?
Answer: The value was 8.66%.

Question: What about the “Residual Rate” value ([1]; Liver, 3 months after administration) of the same molecule?
Answer: The value was 0.30%.

Question: And the “Residual Rate” value ([1]; Liver, 4 weeks after administration)?
Answer: The value was 1.88%.

Question: And the “Residual Rate” value ([1]; Spleen, 1 week after administration)?
Answer: Its value is 11.61%.

Question: What about the “Residual Rate” value ([1]; Spleen, 2 weeks after administration) of the same molecule?
Answer: Its value is 9.33%.

Question: What about the “Residual Rate” value ([1]; Spleen, 3 months after administration) of the same molecule?
Answer: The value was 0.09%.

Question: And the “Residual Rate” value ([1]; Spleen, 4 weeks after administration)?
Answer: The value was 2.45%.

Question: For FC(F)(F)C(F)(F)C1(F)N2C(F)(F)C(F)(F)C(F)(F)C(F)(F)C2(F)C(F)(F)C(F)(F)C1(F)F (stereo not drawn) [Example 101, perfluoro-4-ethyloctahydroquinolidine], which death cases (Wister-strain male rats) is on record?
Answer: Its death cases is “no death case”.
